Assay results taken from patent publication US20030228357A1, “Dry granulated formulations of azithromycin” (Pfizer Inc., priority 2002, published 2003).

Assays:
Assay type in all cases: physicochemical
[1] = Indices of tableting performance (Hiestand) of bulk azithromycin; conditions: forms N, M, G, A milled, F and J unmilled
Description: Indices of tableting performance, for several azithromycin forms, were assessed to identify any mechanical deficiencies or attributes that may affect tablet formulation for these azithromycin forms. This assessment was performed in accordance with the procedures described in “Indices of Tableting, Performance” […] and D. P. Smith, Powder Technology 38 [1984] pp. 145-159. Specifically, the Brittle Fracture Index, BFI, was calculated from the ratio of a material's regular tensile strength to its compromised tensile strength. Strain Index, SI, was determined from the dynamic indentation hardness test. Worst Case Bonding Index was determined by assessing the extent of particle bonding remaining after decompression assuming a very short compression dwell time and a plastic mechanism of particle separation during decompression. Tableting Indices were determined for bulk azithromycin lots of six different crystalline forms, specifically forms N, M, G, A, F and J. Forms N, M and G were milled with a Fitzmill (Model JT, The Fitzpatrick Co., Elmhurst, Ill.) using a 0.027'' screen and knives at high speed in an attempt to match the smaller particle size of milled Form A. Unmilled forms F and J were evaluated “as is” due to their relatively small particle sizes.

[2] = Tablet disintegration time, Automatic Disintegration Tester; conditions: Table 2A; Long blend; Oval tooling; distilled water at 37° C.
Description: The disintegration time was determined in distilled water at 37° C. using an Automatic Disintegration Tester (Model ZT72, Erweka USA Inc, Milford, Conn.) for the long blend tablets. Even with extensive blending times with magnesium stearate, reasonably short disintegration times of 15 and 20 seconds were obtained.

[3] = Tablet friability, Vanderkamp Friabulator (100 rotations/4 minutes); conditions: DCP anhydrous
Description: Friability is a standard test known to one skilled in the art. Friability is measured under standardized conditions by weighing out a certain number of tablets (generally 20 tablets or less), placing them in a rotating Plexiglas drum in which they are lifted during replicate revolutions by a radial lever, and then dropped approximately 8 inches. After replicate revolutions (typically 100 revolutions at 25 rpm), the tablets are reweighed and the percentage of formulation abraded or chipped is calculated. The friability of the tablets, of the present invention, is preferably in the range of about 0% to 3%, and values about 1%, or less, are considered acceptable for most drug and food tablet contexts. Friability which approaches 0% is particularly preferred.
(§1) All four formulations were compressed on the compaction simulator using either 0.344″×0.688″ oval tooling, or ½″ standard round concave (SRC) tooling. The tablets were tested for hardness (kP scale), using a Schleuniger hardness tablet tester (Dr. Schleuniger Pharmatron AG, Solothurn, Switzerland), and for friability (100 rotations/4 minutes) using a Vanderkamp Friabulator Tablet Tester (Vankel, Cary, N.C., US).

[4] = Tablet hardness, Schleuniger hardness tablet tester; conditions: Table 4D; high drug loading; diluent DCP, dihyd.; modified capsule shape
[5] = Tablet friability, Vanderkamp Friabulator (100 rotations/4 minutes); conditions: Table 4D; high drug loading; diluent DCP, dihyd.; modified capsule shape
[6] = Tablet hardness, Schleuniger hardness tablet tester; conditions: DCP anhydrous
Description: as §1

[7] = Slug (compact) hardness, Schleuniger hardness tablet tester
Description: A compaction simulator was used to compress the blends. The compaction simulator was designed as a single station tablet press in which the compression dwell time can be adjusted to simulate different types of tablet presses. All the formulations were slugged on the compaction simulator configured as the Kilian RX-67 press with a dwell time of 0.3145 seconds using […] round flat face tooling. The slugs were then comminuted using a Fitz mill with a 0.125″ screen with knives forward and run at slow speed. […] The slugs were tested for hardness (kP scale), using a Schleuniger hardness tablet tester (Dr. Schleuniger Pharmatron AG, Solothurn, Switzerland).

[8] = Density and Carr's Compressibility Index (flowability) of dry blends and dry granulations
Description: Carr's Compressibility Index was used to evaluate the flowability of the four dry granulations. Carr's Compressibility Index is a simple test to evaluate flowability by comparing both the initial and final (tapped) bulk volumes and the rate of packing down. A useful empirical guide to flow is given by Carr's compressibility index: Compressibility Index(%)=[(tapped density−initial density)/tapped density]×100 […] The procedure is described in Int. J. Pharm. Tech. & Prod. Mfr., 6(3) 10-16, 1985.

[9] = Table 3C, low drug loading (35.2 wt % azithromycin), oval tablets, target weight 750 mg
[10] = 35.2 wt % azithromycin, dicalcium phosphate anhydrous diluent, Long blend method
[11] = Table 3A, low drug loading: 35.2 wt % azithromycin, 54.8 wt % dicalcium phosphate anhydrous, long blend
[12] = Table 4B, high drug loading (58.2 wt % azithromycin), diluent DCP, dihyd.
[13] = 35.2 wt % azithromycin, dicalcium phosphate anhydrous diluent, Long blend method, slugged

Q: With `CCC1OC(=O)C(C)C(O[C@H]2C[C@@](C)(OC)[C@@H](O)C(C)O2)C(C)[C@@H](OC2OC(C)CC(N(C)C)[C@H]2O)[C@@](C)(O)C[C@@H](C)CN(C)[C@H](C)[C@@H](O)[C@]1(C)O` (some centres unmarked) [Form F, azithromycin monohydrate hemi-ethanol solvate] as the compound, how does the “Brittle Fracture Index (BFI)” value [1] read?
A: Its value is 0.37.

Q: And the “Strain Index (SI)” value [1]?
A: The value was 0.0041.

Q: And the “Tensile Strength” value [1]?
A: Its value is 1.62 Mpa.

Q: What about the “Worst Case Bonding Index (BIw) × 10^2” value [1] of the same compound?
A: The value was 0.9.

Q: And the “Mean disintegration Time” value [2]?
A: The value was 20 s.

Q: And the Friability ([3]; Table 2A, 35.2 wt % azithromycin, Long blend, Oval tooling)?
A: Its Friability is 0.48%.

Q: What about the Friability [3, 9] of the same compound?
A: Its Friability is 0.48%.

Q: And the “Avg Tablet Hardness” value [4]?
A: The value was 7.0 kP.

Q: What about the Friability [5] of the same compound?
A: Its Friability is 0.31%.

Q: What about the “Avg Tablet Hardness” value ([6]; Table 2A, 35.2 wt % azithromycin, Long blend, Oval tooling, compression force 13.5 kN (A), 19 kN (F)) of the same compound?
A: The value was 10.3 kP.

Q: What about the “Avg Hardness” value [6, 9] of the same compound?
A: Its value is 10.3 kP.

Q: And the “Avg Slug Hardness” value [7, 10]?
A: The value was 22.4 kP.

Q: And the “Avg Slug Hardness” value [7, 11]?
A: Its value is 22 kP.

Q: And the “Avg Slug Hardness” value [7, 12]?
A: Its value is 9 kP.

Q: And the “Dry Blend Carr's Index” value [8, 10]?
A: The value was 43%.

Q: And the “Dry Blend density As Is” value [8, 10]?
A: Its value is 0.50 g/cc.

Q: What about the “Dry Blend density Tapped” value [8, 10] of the same compound?
A: The value was 0.88 g/cc.

Q: What about the “Granulation Carr's Index” value [8, 13] of the same compound?
A: The value was 22%.

Q: And the “Granulation Density As Is” value [8, 13]?
A: The value was 0.84 g/cc.

Q: What about the “Granulation Density Tapped” value [8, 13] of the same compound?
A: The value was 1.07 g/cc.

Q: What about the “Granulation Carr's Index” value [8, 11] of the same compound?
A: The value was 22%.

Q: What about the “Granulation Density As Is” value [8, 11] of the same compound?
A: Its value is 0.84 g/cc.

Q: What about the “Granulation Density Tapped” value [8, 11] of the same compound?
A: Its value is 1.08 g/cc.

Q: What about the “Dry Granulation Carr's Index” value [8, 12] of the same compound?
A: The value was 27%.

Q: And the “Dry Granulation Density As Is” value [8, 12]?
A: The value was 0.63 g/cc.

Q: And the “Dry Granulation Density Tapped” value [8, 12]?
A: Its value is 0.86 g/cc.
